Eight molecules from patent publication US3997530A, “Substituted enaminoketones” (American Cyanamid Company, priority 1976, dated 1976) can be followed below.

Values joined by “and” are separate entries in the source; they are usually repeats but may differ in a detail not shown here. Equal values may be shown once.

A short description of data set [1]: "writhing syndrome" test for analgesic activity (phenyl-p-quinone). Format: in vivo, male Swiss albino mice. Conditions: 100 mg./kg. oral, 30 minutes before phenyl-p-quinone; 3 minute count commencing 15 minutes after; control approximately 30 per pair; active if 18 or less. The text has this:
The substituted enaminoketones of the present invention are active analgesics when measured by the "writhing syndrome" test for analgesic activity as described by Siegmund, et al., Proc. Soc. Exp. Bio. and Med., 95, 729 (1957), with modifications. This method is based upon the reduction of the number of writhes following the intraperitoneal injection of one mg./kg. of body weight of phenyl-p-quinone in male Swiss albino mice weighing 18-25 gm. The syndrome is characterized by intermittent contractions of the abdomen, twisting and turning of the trunk, and extension of the hind legs beginning 3 to 5 minutes after injection of the phenyl-p-quinone. The test compounds are administered orally at the indicated dose to groups of 2 mice each, 30 minutes before injection of the phenyl-p-quinone. […] A compound is considered active if it reduces the total number of writhes in 2 test mice from a control value of approximately 30 pair to a value of 18 or less. Table I summarized the results of this test on representative compounds of this invention.
In general terms: An intraperitoneal irritant provokes the stretching counted in writhing tests.

A short description of data set [2]: Water solubility of salts. It counts as physicochemical.
Data set [3] can be described thus: Walking gait test in rats with yeast-inflamed paw (modified Atkinson and Cowan). It counts as in vivo, male, albino Wistar strain rats. Conditions: oral by gavage, dose producing 50% reversal of the pre-dose gait score, one and/or two hours post-drug. As to the method:
Atkinson and A. Cowan, J. Pharm. Pharmac, 26, 727 (1974).
In this test male, albino Wistar strain rats from Royalhart farms, weighing 120-150 g. are deprived of food for about 20 hours. A 40% suspension of brewers' yeast in physiological saline is injected, at a concentration of 0.25 ml/rat into the plantar surface of the left hind paw of each rat. 3 hours later, at which time an inflammation of the injected paw has developed, a pre-drug assessment of walking gait is made for each rat according to the following scoring system:
0 = Normal gait in the presence of a severely inflammed paw. There is continuous use of the foot pad.
0.5 = As above with intermittent mild limping.
1.0 = Constant limping, but continuous use of the foot pad.
1.5 = Limping with occasional three-legged gait (paw kept off walking surface) or intermittent use of digits in combination with foot pad.
2.0 = Continuous three-legged gait and/or only the tips of the digits touch the walking surface. There is no use of foot pad.
Compounds, in a suitable vehicle, are administered orally by gavage in a volume of 0.5 ml./100 g. of body weight. One and/or two hours later a post-drug assessment of walking gait is made as described above. The criterion of an analgesic response for each rat is a 50% reversal of the abnormal gait score (post-drug) from the pre-drug score. […]

The nature of data set [4]: Brewer's Yeast Pressure Pain Test (modified Randall and Selitto). It counts as in vivo, rats. As to the method:
To determine analgesic activity, a modification of the method of Randall and Selitto [Arch. int. Pharmacodyn., 111, 409 (1957)] is used. This test measures the pain threshold of rats whose paws are made sensitive to pressure by the injection of a 20% aqueous suspension (0.1 ml.) of brewers' yeast into the plantar surface of the left hind paw. Constantly increasing force (16 grams/second) is applied to the swollen paw using an Analgesy Meter, Ugo Basile. The pressure is cut off at 250 grams of force when there is no response (sudden struggle or vocalization). Control rats treated with the starch vehicle response to a pressure or force of about 30 grams. Pressure-pain thresholds are always recorded 2 hours after brewers' yeast. Analgesic agents are administered at the same time as the yeast, at a dose of 200 mg./kg. orally. Ratios of treated (T)/control (C) reaction thresholds are calculated as estimates of analgesic efficacy (degree of analgesia attainable). Potency is regarded as the dose necessary to produce a given level of analgesia (i.e. 100% elevation of pain threshold is T/C=2.0).

Data set [5] is described as follows: Antipyretic activity, brewers' yeast-induced hyperthermia (modified Teotino et al.). It counts as in vivo, rats. As to the method: The compounds of this invention also show antipyretic activity by their ability to reduce a hyperthermic response in warm-blooded animals, e.g., rats, induced by the subcutaneous injection of a suspension of brewers' yeast. This is a modification of the method described by Teotino, et al., J. Med. Chem. 6, 248 (1963). A 40% suspension of brewer's yeast in distilled water is administered to groups of five to ten rats subcutaneously (1.0 ml./100 g. of body weight). Eighteen hours later, rectal temperatures are recorded and compounds, control vehicle (2% starch suspension) or aspirin is administered. Rectal temperatures are recorded 4 hours later and the results are compared with the starch treated controls and with aspirin, a reference antipyretic agent.

As to `NC(=CC(=O)c1cnccn1)C1CC1` [1-amino-1-cyclopropyl-3-(2-pyrazinyl)-1-propen-3-one], in data set [1], the “No. of writhes per pair” value amounted to 3.8.

For `c1cncc(-c2cc(C3CC3)no2)c1` [3-(3-cyclopropyl-5-isoxazolyl)pyridine], in data set [2] (sulfate salt), the water solubility result is “water soluble”.

In the case of `c1cncc(-c2cc(C3CC3)on2)c1` [3-(5-cyclopropyl-3-isoxazolyl)pyridine], in data set [2] (acetate salt), the solubility result is “slightly soluble”.

`NC(=CC(=O)c1cccnc1)C1CC1` [3-amino-3-cyclopropyl-1-(3-pyridyl)-2-propen-1-one]: the ED50 (in general, the dose at which the effect has come halfway, by size or by number of responders) in data set [3] (Rattus norvegicus, po, 2 h, read-out: ED50) was 27 mg/kg; in data set [3] it was 40 mg/kg and 26 mg/kg.

On to `NC(=CC(=O)c1ccncc1)C1CC1` [3-amino-3-cyclopropyl-1-(4-pyridyl)-2-propen-1-one], for which the “No. of writhes per pair” value in data set [1] is listed as 9.4. In addition, the “Ratio (Treated/Control) Measured at 2 Hours Following 200 mg./kg. Oral Dose” value in data set [4] (200 mg./kg. orally, 2 hours after brewers' yeast, ratio of reaction thresholds T/C) was 1.45 and 1.39. Moreover, the ED50 in data set [4] (Rattus norvegicus, 2 h, oral, Brewer's Yeast Pressure Pain Test) worked out at 25 mg/kg. Moreover, in data set [5] (200 mg./kg., normal rats), the “effect on body temperature of normal rats” value is listed as “not effecting the body temperature of normal rats”. Also, the “lowering the yeast-elevated body temperature of rats” value in data set [5] (200 mg./kg., rectal temperature 4 hours later, yeast-treated rats) was “effective in lowering the yeast-elevated body temperature of rats”.

Regarding `c1cc(-c2cc(C3CC3)no2)ccn1` [4-(3-cyclopropyl-5-isoxazolyl)pyridine], the water solubility result in data set [2] (phosphate salt) is “water soluble”.

As to `c1cc(-c2cc(C3CC3)on2)ccn1` [4-(5-cyclopropyl-3-isoxazolyl)pyridine], in data set [2] (citrate salt), the water solubility entry is given as “slightly water soluble”.

Regarding `CC(=O)Oc1ccccc1C(=O)O` [Aspirin, reference compound], the “effect on temperature of normal rats” value in data set [5] (aspirin reference, dose not given, normal rats) was “not effecting the temperature of normal rats”. Moreover, the lowering yeast-elevated temperatures result in data set [5] (aspirin reference, dose not given, yeast-treated rats) was “similarly effective in lowering yeast-elevated temperatures”.
